Test results as given in patent publication US20240148822A1, “ASSOCIATIONS OF FOSFOMYCIN AND COLISTIN FOR USE AGAINST BIOFILM-ASSOCIATED BACTERIAL INFECTIONS” (priority 2021, published 2024).
Converted amounts (≈) assume the structure as drawn.

How the values were obtained:
Type in all cases: cell-based
[1] = tested on: A. baumannii; experiment: Fosfomycin MIC, agar dilution method (CLSI); details: Acinetobacter baumannii
Method: (§1) Antimicrobial susceptibility testing was performed according to Clinical and Laboratory Standard Institute guidelines [CLSI_M07 2018, CLSI_M100 2020]. In particular, colistin MICs were determined by the broth microdilution method, and fosfomycin MICs by the agar dilution method (with the addition of 25 μg/ml of glucose-6-phosphate, as recommended). […] and P. aeruginosa ATCC 27853 were used for quality control purposes.

[2] = tested on: K. pneumoniae; experiment: Fosfomycin MIC, agar dilution method (CLSI); details: Klebsiella pneumoniae
Method: as §1

[3] = tested on: P. aeruginosa; experiment: Fosfomycin MIC, agar dilution method (CLSI); details: Pseudomonas aeruginosa
Method: as §1

[4] = tested on: S. maltophilia; experiment: Fosfomycin MIC, agar dilution method (CLSI); details: Stenotrophomonas maltophilia
Method: as §1

[5] = tested on: A. baumannii preformed biofilms; experiment: Biofilm susceptibility testing (Nunc-TSP lid system), MBEC; details: 24 h exposure
Method: (§2) Fosfomycin and colistin Minimum Biofilm Eradication Concentrations (MBECs) were determined as previously described (Macia et al, mentioned above), with MBEC being defined as the lowest concentration of antibiotic that prevented visible bacterial growth in the recovery medium.

[6] = tested on: K. pneumoniae preformed biofilms; experiment: as above; details: 24 h exposure
Method: as §2

[7] = tested on: P. aeruginosa preformed biofilms; experiment: as above; details: 24 h exposure
Method: as §2

[8] = tested on: S. maltophilia preformed biofilms; experiment: as above; details: 24 h exposure
Method: as §2

[9] = tested on: all tested strains (Gram-negative clinical isolates); experiment: Fosfomycin MIC, agar dilution, summary over all tested strains
Method: as §1

[10] = tested on: A. baumannii; experiment: Colistin MIC, broth microdilution method (CLSI)
Method: as §1

[11] = tested on: K. pneumoniae; experiment: Colistin MIC, broth microdilution method (CLSI)
Method: as §1

[12] = tested on: P. aeruginosa; experiment: Colistin MIC, broth microdilution method (CLSI)
Method: as §1

[13] = tested on: S. maltophilia; experiment: Colistin MIC, broth microdilution method (CLSI)
Method: as §1

[14] = tested on: all tested strains (Gram-negative clinical isolates); experiment: Colistin MIC, broth microdilution, summary over all tested strains
Method: as §1

[15] = tested on: all tested strains (preformed biofilms); experiment: MBEC, summary over all tested strains; details: colistin
Method: as §2

[16] = strain FZ103, preformed biofilm
[17] = strain FZ105, preformed biofilm
[18] = strain FZ106, preformed biofilm
[19] = strain FZ108, preformed biofilm
[20] = strain FZ141, preformed biofilm
[21] = strain FZ139, preformed biofilm

Which MIC ([1]; strain FZ1) does the source give for `C[C@@H]1O[C@@H]1P(=O)(O)O` [Fosfomycin, fosfomycin] here?
Its MIC is 512 µg/mL (≈ 3710 µM).

And the MIC ([1]; strain FZ2)?
Its MIC is > 1020 µg/mL.

What about the MIC ([1]; strain FZ83) of the same compound?
Its MIC is 64 µg/mL (≈ 464 µM).

And the MIC ([2]; strain FZ80)?
Its MIC is 128 µg/mL (≈ 927 µM).

What about the MIC ([2]; strain FZ103) of the same compound?
The MIC was 32 µg/mL (≈ 232 µM).

And the MIC ([2]; strain FZ105)?
The MIC was 16 µg/mL (≈ 116 µM).

What about the MIC ([2]; strain FZ106) of the same compound?
The MIC was 64 µg/mL (≈ 464 µM).

What about the MIC ([2]; strain FZ108) of the same compound?
The MIC was 128 µg/mL (≈ 927 µM).

What about the MIC ([2]; strain FZ141) of the same compound?
The MIC was ≤ 0.25 µg/mL.

What about the MIC ([3]; strain FZ18) of the same compound?
Its MIC is 64 µg/mL (≈ 464 µM).

And the MIC ([3]; strain FZ34)?
The MIC was > 1020 µg/mL.

And the MIC ([3]; strain FZ45)?
The MIC was > 1020 µg/mL.

And the MIC ([3]; strain FZ98)?
Its MIC is 64 µg/mL (≈ 464 µM).

And the MIC ([3]; strain FZ139)?
Its MIC is 8 µg/mL (≈ 57.9 µM).

And the MIC ([4]; strain FZ6)?
The MIC was 64 µg/mL (≈ 464 µM).

What about the MIC ([4]; strain FZ8) of the same compound?
Its MIC is 128 µg/mL (≈ 927 µM).

And the MIC ([4]; strain FZ85)?
Its MIC is 32 µg/mL (≈ 232 µM).

What about the “Fosfomycin MBEC” value ([5]; strain FZ1, preformed biofilm) of the same compound?
Its value is >1024 µg/mL.

And the “Fosfomycin MBEC” value ([5]; strain FZ2, preformed biofilm)?
Its value is >1024 µg/mL.

And the “Fosfomycin MBEC” value ([5]; strain FZ83, preformed biofilm)?
The value was >1024 µg/mL.

And the “Fosfomycin MBEC” value ([6]; strain FZ80, preformed biofilm)?
Its value is >1024 µg/mL.

And the “Fosfomycin MBEC” value [6, 16]?
Its value is >1024 µg/mL.

And the “Fosfomycin MBEC” value [6, 17]?
Its value is >1024 µg/mL.

And the “Fosfomycin MBEC” value [6, 18]?
Its value is >1024 µg/mL.

What about the “Fosfomycin MBEC” value [6, 19] of the same compound?
The value was >1024 µg/mL.

What about the “Fosfomycin MBEC” value [6, 20] of the same compound?
Its value is 4 µg/mL.

And the “Fosfomycin MBEC” value ([7]; strain FZ18, preformed biofilm)?
Its value is >1024 µg/mL.

And the “Fosfomycin MBEC” value ([7]; strain FZ34, preformed biofilm)?
Its value is >1024 µg/mL.

What about the “Fosfomycin MBEC” value ([7]; strain FZ45, preformed biofilm) of the same compound?
Its value is >1024 µg/mL.

What about the “Fosfomycin MBEC” value ([7]; strain FZ98, preformed biofilm) of the same compound?
The value was >1024 µg/mL.

What about the “Fosfomycin MBEC” value [7, 21] of the same compound?
The value was >1024 µg/mL.

What about the “Fosfomycin MBEC” value ([8]; strain FZ6, preformed biofilm) of the same compound?
Its value is >1024 µg/mL.

What about the “Fosfomycin MBEC” value ([8]; strain FZ8, preformed biofilm) of the same compound?
Its value is >1024 µg/mL.

What about the “Fosfomycin MBEC” value ([8]; strain FZ85, preformed biofilm) of the same compound?
Its value is >1024 µg/mL.

What about the MIC50 [9] of the same compound?
The MIC50 was 64 μs/m1.

What about the MIC90 [9] of the same compound?
Its MIC90 is > 1024 μs/ml.

colistin was tested. Which “Colistin MIC” value ([10]; strain FZ1) did it give?
The value was 0.5 µg/mL.

What about the “Colistin MIC” value ([10]; strain FZ2) of the same compound?
Its value is 1 µg/mL.

And the “Colistin MIC” value ([10]; strain FZ83)?
The value was 8 µg/mL.

And the “Colistin MIC” value ([11]; strain FZ80)?
Its value is 0.5 µg/mL.

And the “Colistin MIC” value ([11]; strain FZ103)?
Its value is 8 µg/mL.

And the “Colistin MIC” value ([11]; strain FZ105)?
The value was 128 µg/mL.

What about the “Colistin MIC” value ([11]; strain FZ106) of the same compound?
Its value is 32 µg/mL.

What about the “Colistin MIC” value ([11]; strain FZ108) of the same compound?
The value was 32 µg/mL.

And the “Colistin MIC” value ([11]; strain FZ141)?
Its value is 2 µg/mL.

And the “Colistin MIC” value ([12]; strain FZ18)?
Its value is 4 µg/mL.

And the “Colistin MIC” value ([12]; strain FZ34)?
The value was 4 µg/mL.

What about the “Colistin MIC” value ([12]; strain FZ45) of the same compound?
The value was 4 µg/mL.

What about the “Colistin MIC” value ([12]; strain FZ98) of the same compound?
Its value is 512 µg/mL.

And the “Colistin MIC” value ([12]; strain FZ139)?
The value was 4 µg/mL.

And the “Colistin MIC” value ([13]; strain FZ6)?
Its value is 4 µg/mL.

What about the “Colistin MIC” value ([13]; strain FZ8) of the same compound?
The value was 4 µg/mL.

What about the “Colistin MIC” value ([13]; strain FZ85) of the same compound?
Its value is 16 µg/mL.

What about the “Colistin MBEC” value ([5]; strain FZ1, preformed biofilm) of the same compound?
Its value is 64 µg/mL.

What about the “Colistin MBEC” value ([5]; strain FZ2, preformed biofilm) of the same compound?
The value was >1024 µg/mL.

And the “Colistin MBEC” value ([5]; strain FZ83, preformed biofilm)?
The value was 128 µg/mL.

And the “Colistin MBEC” value ([6]; strain FZ80, preformed biofilm)?
The value was 64 µg/mL.

What about the “Colistin MBEC” value [6, 16] of the same compound?
The value was 64 µg/mL.

And the “Colistin MBEC” value [6, 17]?
Its value is 256 µg/mL.

And the “Colistin MBEC” value [6, 18]?
The value was 256 µg/mL.

And the “Colistin MBEC” value [6, 19]?
Its value is >1024 µg/mL.

And the “Colistin MBEC” value [6, 20]?
The value was 8 µg/mL.

And the “Colistin MBEC” value ([7]; strain FZ18, preformed biofilm)?
Its value is >1024 µg/mL.

And the “Colistin MBEC” value ([7]; strain FZ34, preformed biofilm)?
Its value is >1024 µg/mL.

And the “Colistin MBEC” value ([7]; strain FZ45, preformed biofilm)?
The value was >1024 µg/mL.

And the “Colistin MBEC” value ([7]; strain FZ98, preformed biofilm)?
Its value is >1024 µg/mL.

What about the “Colistin MBEC” value [7, 21] of the same compound?
Its value is >1024 µg/mL.

What about the “Colistin MBEC” value ([8]; strain FZ6, preformed biofilm) of the same compound?
The value was >1024 µg/mL.

What about the “Colistin MBEC” value ([8]; strain FZ8, preformed biofilm) of the same compound?
The value was >1024 µg/mL.

And the “Colistin MBEC” value ([8]; strain FZ85, preformed biofilm)?
Its value is >1024 µg/mL.

And the MIC50 [14]?
Its MIC50 is 4 μs/ml.

What about the MIC90 [14] of the same compound?
The MIC90 was 32 μs/ml.

And the MBEC50 [15]?
Its MBEC50 is 512 µg/mL.
